PubChem BioAssay AID248 (DTP/NCI, 2004)
Values joined by “and” are separate entries in the source; they are usually repeats but may differ in a detail not shown here. Equal entries are not always repeated. Toxic doses and inconclusive results are not listed. No stated cut-off is given here; in the data, active means T/C of 150% or more; inactive means T/C below 125%.

Tested on: L1210 leukemia ip in BDF1 mice, survival T/C
Assay: NCI In Vivo Anticancer Drug Screen. Data for tumor model L1210 Leukemia (intraperitoneal) in B6D2F1 (BDF1) mice
Details: endpoint: mean survival time, higher = longer survival
In short: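 Antitumor effect is assessed in tumor-bearing animals. Survival in the compound arm is compared with a vehicle-dosed control arm and expressed as their quotient.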

[1] = dose: 50.0 mg/kg/injection, schedule: Q01DX009 (ip), vehicle: saline
[2] = dose: 100.0 mg/kg/injection, schedule: Q04DX003 (ip), vehicle: saline
[3] = dose: 200.0 mg/kg/injection, schedule: Q04DX003 (ip), vehicle: saline
[4] = dose: 400.0 mg/kg/injection, schedule: Q04DX003 (ip), vehicle: saline
[5] = dose: 25.0 mg/kg/injection, schedule: Q04DX003 (ip), vehicle: saline with Tween-80
[6] = dose: 50.0 mg/kg/injection, schedule: Q04DX003 (ip), vehicle: saline with Tween-80
[7] = dose: 100.0 mg/kg/injection, schedule: Q04DX003 (ip), vehicle: saline with Tween-80
[8] = dose: 100.0 mg/kg/injection, schedule: Q04DX002 (ip), vehicle: Klucel (hydroxypropylcellulose) (HPC)
[9] = dose: 200.0 mg/kg/injection, schedule: Q04DX002 (ip), vehicle: Klucel (hydroxypropylcellulose) (HPC)
[10] = dose: 400.0 mg/kg/injection, schedule: Q04DX002 (ip), vehicle: Klucel (hydroxypropylcellulose) (HPC)
[11] = dose: 100.0 mg/kg/injection, schedule: Q01DX009 (ip), vehicle: Klucel (hydroxypropylcellulose) (HPC)
[12] = dose: 100.0 mg/kg/injection, schedule: Q04DX003 (ip), vehicle: Klucel (hydroxypropylcellulose) (HPC)
[13] = dose: 200.0 mg/kg/injection, schedule: Q01DX009 (ip), vehicle: Klucel (hydroxypropylcellulose) (HPC)
[14] = dose: 200.0 mg/kg/injection, schedule: Q04DX003 (ip), vehicle: Klucel (hydroxypropylcellulose) (HPC)
[15] = dose: 400.0 mg/kg/injection, schedule: Q01DX009 (ip), vehicle: Klucel (hydroxypropylcellulose) (HPC)
[16] = dose: 400.0 mg/kg/injection, schedule: Q04DX003 (ip), vehicle: Klucel (hydroxypropylcellulose) (HPC)

Measured: T/C

CC(C)(C)C1CC(C(F)(F)F)(C(F)(F)F)OS(=O)O1 (stereo not given)
inactive: dose: 12.5 mg/kg/injection, schedule: Q01DX009 (ip), vehicle: saline 96 % of control | dose: 12.5 mg/kg/injection, schedule: Q04DX003 (ip), vehicle: saline 102 % of control | dose: 25.0 mg/kg/injection, schedule: Q01DX009 (ip), vehicle: saline 94 % of control | dose: 25.0 mg/kg/injection, schedule: Q04DX003 (ip), vehicle: saline 91 % of control | [1] 100 % of control | dose: 50.0 mg/kg/injection, schedule: Q04DX003 (ip), vehicle: saline 94 % of control

O=C1NC(c2ccccc2)(c2ccccc2)C(=O)N1CCCl
inactive: dose: 100.0 mg/kg/injection, schedule: Q01DX009 (ip), vehicle: acetone 102 % of control | [2] 101 % of control | dose: 200.0 mg/kg/injection, schedule: Q01DX009 (ip), vehicle: acetone 101 % of control | [3] 95 % of control | dose: 400.0 mg/kg/injection, schedule: Q01DX009 (ip), vehicle: acetone 104 % of control | [4] 110 % of control

Cc1ccc(-n2c(O)c(N=Nc3ccc(Cl)cc3)c(=O)n(-c3ccc(C)cc3)c2=S)cc1
inactive: dose: 37.5 mg/kg/injection, schedule: Q01DX001 (ip), vehicle: Klucel (hydroxypropylcellulose) (HPC) 97 % of control | dose: 75.0 mg/kg/injection, schedule: Q01DX001 (ip), vehicle: Klucel (hydroxypropylcellulose) (HPC) 107 % of control | dose: 150.0 mg/kg/injection, schedule: Q01DX001 (ip), vehicle: Klucel (hydroxypropylcellulose) (HPC) 96 % of control

CCNC(=O)c1cc[n+](CC)c(/C=C/c2c[nH]c3ccccc23)c1
inactive: dose: 100.0 mg/kg/injection, schedule: Q01DX001 (ip), vehicle: carboxymethylcellulose (CMC) 96 % of control | dose: 200.0 mg/kg/injection, schedule: Q01DX001 (ip), vehicle: carboxymethylcellulose (CMC) 98 % of control | dose: 400.0 mg/kg/injection, schedule: Q01DX001 (ip), vehicle: carboxymethylcellulose (CMC) 100 % of control

COC1=C(N2CC2)C(=O)c2ccccc2C1=O
inactive: [5] 109 % of control | [6] 101 % of control | [7] 101 % of control and 108 % of control

Cc1ccc(S(=O)(=O)OC2C(SCc3ccccc3)OCC(OC(=O)c3ccccc3)C2OC(=O)c2ccccc2)cc1 (stereo not given)
inactive: dose: 100.0 mg/kg/injection, schedule: Q01DX001 (ip), vehicle: saline 93 % of control | dose: 200.0 mg/kg/injection, schedule: Q01DX001 (ip), vehicle: saline 88 % of control | dose: 400.0 mg/kg/injection, schedule: Q01DX001 (ip), vehicle: saline 88 % of control

NC(=O)COc1ncc(Cl)cc1Cl
inactive: [8] 96 % of control | [9] 101 % of control | [10] 104 % of control

CCCCCCC(=O)C(C)C
inactive: [11] 93 % of control | [12] 89 % of control | [13] 96 % of control | [14] 88 % of control | [15] 106 % of control | [16] 98 % of control

BrCC[CH2][Sn]([Br])([Br])[Br]
inactive: [1] 107 % of control | dose: 100.0 mg/kg/injection, schedule: Q01DX009 (ip), vehicle: saline 103 % of control

Nc1ccc(OCCNC(=O)c2ccc(S(=O)(=O)F)cc2)c(Cl)c1
inactive: dose: 100.0 mg/kg/injection, schedule: Q01DX001 (ip), vehicle: saline with Tween-80 94 % of control | dose: 200.0 mg/kg/injection, schedule: Q01DX001 (ip), vehicle: saline with Tween-80 89 % of control | dose: 400.0 mg/kg/injection, schedule: Q01DX001 (ip), vehicle: saline with Tween-80 96 % of control

CCOc1ccc(/C=C2\N=C(c3ccc([N+](=O)[O-])cc3)OC2=O)cc1
inactive: [11] 97 % of control | [13] 87 % of control | [15] 94 % of control

CC(=O)NC(CCSCc1c2ccccc2c(C)c2c1ccc1ccccc12)C(=O)O (stereo not given)
inactive: dose: 200.0 mg/kg/injection, schedule: Q01DX009 (ip), vehicle: saline with Tween-80 92 % of control | dose: 400.0 mg/kg/injection, schedule: Q01DX009 (ip), vehicle: saline with Tween-80 90 % of control

ClC1(c2ccccc2)c2ccc(Br)cc2-c2cc(Br)ccc21
inactive: [11] 103 % of control | [12] 104 % of control | [13] 100 % of control | [14] 107 % of control | [15] 108 % of control | [16] 94 % of control

Cc1ccc(N=Cc2cc(Br)cc(Br)c2O)cc1.Cc1ccc(N=Cc2cc(Br)cc(Br)c2O)cc1.[Co]
inactive: [5] 104 % of control | [6] 100 % of control | [7] 100 % of control

NC(=O)Nc1ccccc1
inactive: [11] 103 % of control | [8] 109 % of control | [13] 106 % of control | [9] 109 % of control | [15] 103 % of control | [10] 88 % of control

COc1cc(O)c(OC)cc1O
inactive: [11] 100 % of control | [12] 105 % of control | [13] 103 % of control | [14] 103 % of control | [15] 97 % of control | [16] 102 % of control

CN(C)N=Nc1cn[nH]c1C(N)=O
inactive: dose: 25.0 mg/kg/injection, schedule: Q01DX009 (ip), vehicle: Klucel (hydroxypropylcellulose) (HPC) 117 % of control | dose: 50.0 mg/kg/injection, schedule: Q01DX009 (ip), vehicle: Klucel (hydroxypropylcellulose) (HPC) 112 % of control and 117 % of control and 118 % of control | [12] 96 % of control and 121 % of control | [2] 111 % of control | dose: 178.0 mg/kg/injection, schedule: Q01DX009 (ip), vehicle: saline 87 % of control | [13] 105 % of control and 113 % of control | [14] 98 % of control | [3] 119 % of control | dose: 267.0 mg/kg/injection, schedule: Q01DX009 (ip), vehicle: saline 91 % of control | [15] 103 % of control

CCOc1cc(-c2ccc(OC)cc2)nc(N)n1
inactive: dose: 100.0 mg/kg/injection, schedule: Q04DX002 (ip), vehicle: saline with Tween-80 91 % of control | dose: 200.0 mg/kg/injection, schedule: Q04DX002 (ip), vehicle: saline with Tween-80 97 % of control | dose: 400.0 mg/kg/injection, schedule: Q04DX002 (ip), vehicle: saline with Tween-80 91 % of control

CC(C)(C)OOC(=O)c1ccccc1O
inactive: dose: 100.0 mg/kg/injection, schedule: Q01DX009 (ip), vehicle: saline sonified 113 % of control | [2] 106 % of control | [3] 106 % of control | [4] 110 % of control

O=C1C=CC(=O)N1CO (tested in a mixture with another compound)
inactive: [7] 97 % of control | dose: 200.0 mg/kg/injection, schedule: Q04DX003 (ip), vehicle: saline with Tween-80 92 % of control | dose: 400.0 mg/kg/injection, schedule: Q04DX003 (ip), vehicle: saline with Tween-80 91 % of control

CCCCCCCCCCOC(=S)S
inactive: dose: 50.0 mg/kg/injection, schedule: Q04DX002 (sc), vehicle: olive oil, sesame oil, peanut oil 100 % of control | dose: 100.0 mg/kg/injection, schedule: Q04DX002 (sc), vehicle: olive oil, sesame oil, peanut oil 116 % of control | dose: 200.0 mg/kg/injection, schedule: Q04DX002 (sc), vehicle: olive oil, sesame oil, peanut oil 106 % of control

CCC(CO)NC(=O)/C=C/c1cccc(Br)c1 (stereo not given)
inactive: dose: 100.0 mg/kg/injection, schedule: Q04DX003 (ip), vehicle: other 102 % of control | dose: 200.0 mg/kg/injection, schedule: Q04DX003 (ip), vehicle: other 103 % of control | dose: 400.0 mg/kg/injection, schedule: Q04DX003 (ip), vehicle: other 96 % of control
